Assay results published in patent publication US8440610B2, “Mapkap kinase-2 as a specific target for blocking proliferation of P53-defective cells” (Massachusetts Institute of Technology, priority 2004, dated 2013).

Experiments:
[1] = system: p38 MAPK/MK2 pathway; test: Immunoblot of p38 MAPK/MK2 activation after DNA-damaging drugs in U2OS cells; format: cell-based, human
Protocol: (§1) 14-3-3 pull-down assays, immunoblotting, and immunofluorescence. U2OS cells were lysed in lysis buffer: 50 mM Tris/HCl, pH7.8, 150 mM NaCl, 1.0% NP-40, 5 mM EDTA, 2 mM DTT, 8 μg/ml pepstatin, 8 μg/ml aprotinin, 8 μg/ml leupeptin, 2 mM Na3VO4, 10 mM NaF, 1 μM microcystin for twenty minutes at 4° C. Clarified lysates (0.5-2 mg protein) were incubated with 20 μL glutathione beads or amylose beads containing 10-20 μg 14-3-3-GST or 14-3-3-MBP, respectively, for 120 minutes at 4° C. Following washing, lysates and bead-bound proteins were analysed by SDS-PAGE, followed by transfer to PVDF membranes and immunoblotted with the indicated antibodies. For immunofluorescence experiments, U2OS cells were seeded onto 18 mm^2 coverslips, irradiated or mock-treated, fixed, extracted, and immunostained as described previously (Clapperton et al., Nat. Struct. Mol. Biol., 11:512-518, 2004).

[2] = target: Chk2 (Homo sapiens, UniProt O96017); conditions: Chk1 versus Chk2; cited from earlier work
Sequence of Chk2 (O96017 whole entry, species assumed): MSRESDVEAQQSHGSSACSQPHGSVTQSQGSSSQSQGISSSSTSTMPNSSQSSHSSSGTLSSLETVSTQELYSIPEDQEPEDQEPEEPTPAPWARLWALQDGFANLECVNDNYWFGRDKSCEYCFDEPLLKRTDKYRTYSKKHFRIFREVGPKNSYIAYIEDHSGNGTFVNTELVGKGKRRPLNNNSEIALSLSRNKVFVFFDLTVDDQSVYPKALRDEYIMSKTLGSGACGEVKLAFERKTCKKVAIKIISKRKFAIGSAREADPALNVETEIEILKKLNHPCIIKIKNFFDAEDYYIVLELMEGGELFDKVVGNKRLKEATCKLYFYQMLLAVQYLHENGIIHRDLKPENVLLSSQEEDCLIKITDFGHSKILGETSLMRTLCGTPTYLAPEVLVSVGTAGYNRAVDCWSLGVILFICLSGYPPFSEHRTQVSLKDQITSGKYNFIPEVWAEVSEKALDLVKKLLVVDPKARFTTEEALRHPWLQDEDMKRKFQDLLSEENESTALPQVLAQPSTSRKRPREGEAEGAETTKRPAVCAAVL

[3] = system: Cdc25C Ser-216 phosphorylation; conditions: Chk1-depleted cells, low doses of UCN-01 (~300 nM); cited from earlier work
[4] = target: T1, MAPKAP kinase-2 (Homo sapiens, UniProt P49137); test: Phosphorylation of hsp-27 on Ser-82 after heat shock in U2OS cells (immunoblot); format: cell-based; design: endogenous in cells; host or cells: U2OS cells; conditions: control luciferase shRNA U2OS cells, 42° C. for two hours, 250 nM UCN-01
T1 sequence (P49137 whole entry): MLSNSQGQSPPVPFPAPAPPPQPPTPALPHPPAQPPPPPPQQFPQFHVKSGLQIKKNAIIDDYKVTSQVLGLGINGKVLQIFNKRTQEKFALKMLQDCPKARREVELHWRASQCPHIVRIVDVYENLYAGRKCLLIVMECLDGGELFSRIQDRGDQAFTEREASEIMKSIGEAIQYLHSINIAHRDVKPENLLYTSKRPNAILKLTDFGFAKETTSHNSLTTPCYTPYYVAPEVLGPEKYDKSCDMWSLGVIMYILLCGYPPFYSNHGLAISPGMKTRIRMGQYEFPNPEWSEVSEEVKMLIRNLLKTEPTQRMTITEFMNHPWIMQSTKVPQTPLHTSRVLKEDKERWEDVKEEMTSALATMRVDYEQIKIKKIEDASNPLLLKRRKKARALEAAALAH
Protocol: as §1
Activation of MK2 by cisplatin, camptothecin, and doxorubicin is strikingly similar to the activation profile reported for Chk1. […] U2OS cells depleted of Chk1 using siRNA were exposed to cisplatin and doxorubicin, and analyzed for activation of MK2. […] The IC50 value we measured for Chk1 is in good agreement with previously published data. […]

[5] = system: U2OS cells; test: FACS cell cycle analysis (PI, phospho-histone H3) in U2OS cells; format: cell-based, human; conditions: untreated U2OS cells blocked in mitosis with nocodazole (100 nM, eighteen hours)
Protocol: Asynchronous MAPKAP kinase-2 or luciferase shRNA knockdown cells were mock treated or exposed to doxorubicin for thirty hours, and cell cycle progression was monitored by FACS. In one set of experiments, the spindle poison nocodazole was added to the media three hours after addition of doxorubicin, to cause any cells progressing through the cell cycle to arrest in mitosis. DNA content was monitored by PI staining; phospho-histone-H3 staining was used as an indicator of mitotic entry. As shown in the left panels of FIG. 14A, treatment of control luciferase shRNA knockdown cells with doxorubicin led to the accumulation of cells with 4N DNA content, and a lack of phospho-histone-H3 staining in either the absence or presence of nocodazole. The cells expressing the luciferase shRNAs behaved identically to the untransfected doxorubicin-treated control U2OS cell population (FIG. 24B), with the prominent 4N DNA component and the absence of phospho-histone-H3 staining indicative of an intact G2/M checkpoint.
In contrast to the G2/M checkpoint response observed in doxorubicin-treated cells, treatment with the DNA intra-strand cross-linker cisplatin caused U2OS cells to predominantly accumulate in the G1 and S phases of the cell cycle over the subsequent thirty hours (FIG. 24C). RNA interference was used to investigate the role of MAPKAP kinase-2 in this process. […] Strikingly, when nocodazole was added three hours following cisplatin addition, the MAPKAP kinase-2 depleted cells accumulated in a 4N DNA containing peak with ˜42% of the cells staining strongly for phospho-histone H3. Identical results were obtained in cells treated with a second unrelated siRNA sequence against MAPKAP kinase-2.
FACS analysis. UV irradiation was performed at 254 nm (UV-C) using a Stratalinker 2400 (Stratagene). U2OS cells were fixed in 70% ethanol overnight at −20° C., permeabilized with PBS containing 0.2% Triton X-100 for twenty minutes at 4° C., blocked with 2% FBS in PBS, and incubated with 1 μg of anti-phospho-histone H3 per 10^6 cells for sixty minutes on ice. […]

[6] = system: mouse embryonic fibroblasts (MEFs); test: Colony survival assay in p53 wild-type and p53−/− MEFs; format: cell-based; conditions: MEFs that lacked p53; not seen in p53 wild-type MEFs
Protocol: FIGS. 29A-29B are graphs showing the results of a colony survival assay in which mouse embryonic fibroblasts (MEFs) were treated with increasing doses of doxorubicin or cisplatin for eight hours, rinsed twice with PBS and once with media, and re-plated at an initial density of 5,000 cells/10 cm^2 dish. After eleven days, the number of colonies on the plate was counted and normalized to the number of colonies formed by the same cell type in the absence of treatment with chemotherapeutic drugs. RNA interference using short hairpin RNAs was used with both the p53 wild-type MEFs and the p53^−/− MEFs to knock down the levels of MAPKAP kinase-2 (MK2 shRNA). Short hairpin RNAs against luciferase (luciferase shRNA) were used as a control. […] FIG. 29C is a series of Western blots using the indicated antibodies. These blots verify that p53 polypeptide, and the known p53-responsive gene product p21, is induced by DNA damage only in the p53 wild-type cells (lanes 2, 3, 5, and 6), but not in the p53^−/− cells (lanes 7-12). […]
The p53 tumor suppressor protein plays an important role in the cellular response to DNA damage by transcriptionally upregulating the Cdk inhibitor p21 to induce a G1 and G2 arrest. […] Cells were infected with lentiviruses delivering shRNAs against luciferase (control) or MK2 and analyzed 6 days later (FIG. 29C). […] Only minimal amounts of the p53 inducer protein p19ARF were detected. […]

[7] = target: T1, MAPKAP kinase-2; test: Kinetics of in vitro phosphorylation of MK2tides by MAPKAP kinase-2; format: biochemical; design: purchased Upstate; conditions: peptide as substrate of MAPKAP kinase-2
Excerpt: To verify the peptide library screening results, individual peptides (MK2tides) containing the optimal MAPKAP kinase-2 consensus motif LQRQLSI (SEQ ID NO: 16), or mutant versions with Ala substituted at each position in the motif, were synthesized and used for kinetic analysis (FIGS. 3B and 3C). […] The rank order of importance of key residues is Arg-3>Leu-5≈Ile+1>[…]. The optimal MK2tide had neither the lowest Km nor the highest Vmax, but rather had the highest Vmax/Km ratio, consistent with the fact that the peptide library screening approach selects substrates on the basis of optimal Vmax/Km, rather than low Km or high Vmax alone. […]
(§2) The sequences of the p38 optimal peptide and the p47phox peptide were KKAZGPQGPQSPIE (SEQ ID NO: 22) and KKAZGPQSPGSPLE (SEQ ID NO: 23), respectively. For 14-3-3 pulldowns of Cdc25B following in vitro phosphorylation by p38 or MAPKAP kinase-2, 2.0 μg of Cdc25B was incubated with 10-fold excess 14-3-3-MBP and analyzed by autoradiography. […] Samples were analyzed by SDS-PAGE followed by transfer to nitrocellulose for autoradiography and immunoblotting. The rate of p38α phosphorylation of isolated peptides and full-length p47phox proteins was determined by scintillation counting using peptide concentrations of 100, 400, and 1400 μM, and protein concentrations of 1, 5, 10 and 15 μM, with time points taken at five, ten, and twenty minutes. […]

[8] = target: p38α SAPK (Homo sapiens, UniProt Q16539); test: Kinetics of in vitro substrate phosphorylation by p38α SAPK; format: biochemical; conditions: GST-tagged full-length protein as substrate
Sequence of p38α SAPK (Q16539 whole entry): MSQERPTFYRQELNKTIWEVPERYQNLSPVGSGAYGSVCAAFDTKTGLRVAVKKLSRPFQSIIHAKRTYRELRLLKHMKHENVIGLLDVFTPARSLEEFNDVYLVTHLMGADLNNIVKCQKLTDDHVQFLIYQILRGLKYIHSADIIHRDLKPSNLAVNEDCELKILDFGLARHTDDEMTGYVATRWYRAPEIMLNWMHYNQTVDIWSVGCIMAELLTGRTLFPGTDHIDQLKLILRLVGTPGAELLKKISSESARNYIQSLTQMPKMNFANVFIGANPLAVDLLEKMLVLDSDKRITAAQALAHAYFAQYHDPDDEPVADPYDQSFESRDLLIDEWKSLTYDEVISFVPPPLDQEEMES
Excerpt: Wild-type and mutant versions of GST-tagged full-length p47phox protein, rather than isolated peptides, were then used as substrates for in vitro phosphorylation reactions. The wild-type full-length p47phox protein was rapidly phosphorylated by p38α SAPK (FIGS. 1C and 1D). […] Simultaneous mutation of both Ser345 and Ser348 to Ala eliminated phosphorylation of p47phox by p38 SAPK altogether.
as §2, with “autoradiography. For kinetic measurements, the reactions were terminated by the addition of an equal volume of 0.5 percent phosphoric acid, and 5 μl was spotted onto p81 paper.” for “autoradiography.”

## C[S+]([O-])c1ccc(-c2nc(-c3ccncc3)c(-c3ccc(F)cc3)[nH]2)cc1 (stereo not shown) [SB203580]
[1]
  MK2 activation by DNA damaging agents: completely abolished MK2 activation

## CN[C@@H]1C[C@H]2O[C@@](C)([C@@H]1OC)n1c3ccccc3c3c4c(c5c6ccccc6n2c5c31)C(=O)N[C@H]4O [UCN-01, 7-hydroxystaurosporin]
[2]
  IC50 for Chk1 lower than that for Chk2: ~1000 fold
[3]
  phosphorylation of Cdc25C on Ser-216: lost
[4]
  phosphorylation of hsp-27 on Ser-82: completely abrogated

## CC[C@@]1(O)C(=O)OCc2c1cc1n(c2=O)Cc2cc3ccccc3nc2-1 [camptothecin]
[1]; U2OS cells, 10 μM drug
  time to MK2 activation (reduction in electrophoretic mobility, pThr-344): within four hour

## COC(=O)Nc1nc2ccc(C(=O)c3cccs3)cc2[nH]1 [nocodazole]
[5]
  cells staining for phospho-histone H3: 42%

## MK2 shRNA: lentivirally delivered short hairpin RNA against murine MAPKAP kinase-2 (SEQ ID NO: 26) (TCGATGCGTGTTGACTATGATTCAAGAGATCATAGTCAACACGCATCGTTTTTTC)
[6]
  sensitivity to doxorubicin and cisplatin (colony survival): increased sensitivity

## MK2tide: peptide containing the optimal MAPKAP kinase-2 consensus motif LQRQLSI (SEQ ID NO: 16)
[7]
  Km value relative to the best MAPKAP kinase-2 peptide substrate known to date (HSP27-derived sequence): two-fold lower

B1: wild-type p47phox: GST-tagged full-length p47phox protein, cytosolic component of NADPH oxidase, used as p38 SAPK substrate (protein)
chain: MGDTFIRHIALLGFEKRFVPSQHYVYMFLVKWQDLSEKVVYRRFTEIYEFHKTLKEMFPIEAGAINPENRIIPHLPAPKWFDGQRAAENRQGTLTEYCSTLMSLPTKISRCPHLLDFFKVRPDDLKLPTDNQTKKPETYLMPKDGKSTATDITGPIILQTYRAIANYEKTSGSEMALSTGDVVEVVEKSESGWWFCQMKAKRGWIPASFLEPLDSPDETEDPEPNYAGEPYVAIKAYTAVEGDEVSLLEGEAVEVIHKLLDGWWVIRKDDVTGYFPSMYLQKSGQDVSQAQRQIKRGAPPRRSSIRNAHSIHQRSRKRLSQDAYRRNSVRFLQQRRRQARPGPQSPGSPLEEERQTQRSKPQPAVPPRPSADLILNRCSESTKRKLASAV
modifications: left off: a dimerising Fc or GST
notes: GST-tagged full-length p47phox protein, cytosolic component of NADPH oxidase, used as p38 SAPK substrate
[8]
  Vmax for p38 SAPK phosphorylation: 36.6 nmol/min/µg
[8]; read-out: Km for p38 SAPK phosphorylation
  Km: 6 µM
